Reference: patent US20160279079A1, “COMPOSITIONS AND METHODS FOR TREATING BONE DISEASES” (INDIANA UNIVERSITY RESEARCH AND TECHNOLOGY CORPORATION, priority 2013, published 2016)
“Also recorded” adds a separate entry of the source.

Tests used:
[1] = tested on: p-NFκB; experiment: Western immunoblotting, p-NFκB in RAW264.7 cells; type: cell-based, mouse; details: 20 μM salubrinal
Protocol: (§1) METHOD EXAMPLE. Western Immunoblotting. Cells were lysed in a radioimmunoprecipitation assay (RIPA) buffer containing protease inhibitors (Santa Cruz Biotechnology, Santa Cruz, Calif., USA) and phosphatase inhibitors (Calbiochem, Billerica, Mass., USA). Isolated proteins were fractionated using 10-15% SDS gels and electro-transferred to Immobilon-P membranes (Millipore, Billerica, Mass., USA). The membrane was incubated for 1 h with primary antibodies followed by 45 min incubation with goat anti-rabbit or anti-mouse IgG conjugated with horseradish peroxidase (Cell Signaling, Danvers, Mass., USA). We used antibodies against ATF4, NFATcl (Santa Cruz), p-eIF2α (Thermo Scientific, Waltham, Mass., USA), eIF2α, caspase 3, cleaved caspase 3, p38 and p-p38 mitogen activated protein kinase (MAPK), extracellular signal-regulated kinase (ERK) and p-ERK, nuclear factor kappa B (NFκB) p65 and p-NFκB p65 (Cell Signaling), and β-actin (Sigma). Protein levels were assayed using a SuperSignal west femto maximum sensitivity substrate (Thermo Scientific), and signal intensities were quantified with a luminescent image analyzer (LAS-3000, Fuji Film, Tokyo, Japan).
METHOD EXAMPLE. Temporal profile of p-eIF2α and NFATcl. […] Note that the normalized level of “1” in FIG. 6C was defined as the level for the cells that were not treated with RANKL without administration of guanabenz.

[2] = tested on: MC3T3 E1 mouse osteoblast-like cells (clone 14); experiment: Cell mortality and proliferation of MC3T3 E1-14 cells; type: cell-based; details: 5-20 μM salubrinal
Protocol: METHOD EXAMPLE. Cell culture. MC3T3 E1 mouse osteoblast-like cells (clone 14—MC3T3 E1-14; and no clonal cells in supplementary figures), and RAW264.7 mouse pre-osteoclast (monocyte/macrophage) cells were cultured in αMEM containing 10% fetal bovine serum and antibiotics (50 units/ml penicillin, and 50 μg/ml streptomycin; Life Technologies, Grand Island, N.Y., USA). Cells were maintained at 37° C. and 5% CO2 in a humidified incubator. Cell mortality and live cell numbers were determined 24 h after the treatment with 20 ng/ml RANKL (PeproTech, Rocky Hills, N.C., USA) in response to 0.1-20 μM salubrinal or 1-20 μM guanabenz acetate (Tocris Bioscience, Ellisville, Mo., USA). Cells were stained with trypan blue and the numbers of live and dead cells were counted using a hemacytometer.
(§2) METHOD EXAMPLE. Enhanced mineralization of MC3T3 E1-14 cells by salubrinal. Prior to examining the effects of salubrinal on osteoclastogenesis, its effects on development of osteoblasts was tested, focusing on cell viability, phosphorylation of eIF2α (p-eIF2α), expression of ATF4 and osteocalcin, and matrix mineralization. […] The enhanced mineralization was also observed in non-clonal MC3T3 E1 cells (Supplementary FIG. S1).

[3] = tested on: cleaved caspase 3; experiment: Western immunoblotting, cleaved caspase 3 in MC3T3 E1-14 cells; type: cell-based, mouse; details: 10 μM salubrinal, 24 h
Protocol: as §1
METHOD EXAMPLE. Enhanced mineralization of MC3T3 E1-14 cells by salubrinal. […]

[4] = tested on: MC3T3 E1-14 cells; experiment: Mineralization assay (Alizarin Red S staining); type: cell-based, mouse; details: 3-week incubation in an osteogenic medium
Protocol: METHOD EXAMPLE. Mineralization assay. Mineralization of extracellular matrix was assayed by Alizarin Red S staining. MC3T3-E1 cells were plated in 6-well plates. When cells were confluent, 50 μg/ml of ascorbic acid (Wako Chemicals, Richmond, Va., USA) and 5 mM β-glycerophosphate (Sigma) were added. The medium was changed every other day, and staining was conducted after 3 week. Cells were washed with PBS twice and fixed with 60% isopropanol for 1 min at room temperature, followed by rehydration with distilled water for 3 min at room temperature. They were stained with 1% Alizarin red S (Sigma) for 3 min and washed with distilled water.
as §2

SMILES: O=C(/C=C/c1ccccc1)NC(NC(=S)Nc1cccc2cccnc12)C(Cl)(Cl)Cl (centres unmarked) [salubrinal]
- phosphorylation level of NFκB [1]: did not significantly alter; also recorded: no detectable changes
- cell mortality [2]: did not increase cell mortality or inhibit cell proliferation
- cell proliferation [2]: did not increase cell mortality or inhibit cell proliferation
- expression level of cleaved caspase 3 [3]: did not elevate
- mineralization (Alizarin red S staining area) [4]: enhanced mineralization of MC3T3 E1-14 cells in a dose dependent manner
